Assay [1] deals with GDP-bound KRAS wild-type protein (Homo sapiens, UniProt P01116). Briefly: Binding to KRAS by surface plasmon resonance (SPR), Single Cycle Kinetics. The note with it: SPR Single Cycle Kinetics, GDP-bound KRAS wild-type protein, 1:1 binding model; read-out: KRAS KD.
Assay [2] addresses GDP-bound HRAS wild-type protein (Homo sapiens, UniProt P01112). Briefly: Binding to HRAS by surface plasmon resonance (SPR), Single Cycle Kinetics. The note with it: SPR KD ratio HRAS/KRAS, class symbols. (Surface plasmon resonance follows binding to a sensor surface in real time, without labels.)
The target in assay [3] is GDP-bound NRAS wild-type protein (Homo sapiens, UniProt P01111). Nature of the assay: Binding to NRAS by surface plasmon resonance (SPR), Single Cycle Kinetics. The settings on record: SPR KD ratio NRAS/KRAS, class symbols.
Assay [4] deals with human lung cancer strain NCI-H441.

The record followed here is patent US20240158446A1, “CYCLIC COMPOUND HAVING SELECTIVE INHIBITORY ACTION ON KRAS OVER HRAS AND NRAS” (CHUGAI SEIYAKU KABUSHIKI KAISHA, priority 2021, published 2024).

What is called pKd is −log10 of the Kd, conventionally taken in molar units. One may read the pIC50 as the negative decadic logarithm of the IC50, by convention in mol/L. A higher pIC50 goes with a low IC50.

pIC50, pKd: −log10 of the molar value.
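Wherever pIC50 is given: cell proliferation inhibition after four days measured by CellTiter-Glo.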

Chain of GDP-bound HRAS wild-type protein (P01112 whole entry): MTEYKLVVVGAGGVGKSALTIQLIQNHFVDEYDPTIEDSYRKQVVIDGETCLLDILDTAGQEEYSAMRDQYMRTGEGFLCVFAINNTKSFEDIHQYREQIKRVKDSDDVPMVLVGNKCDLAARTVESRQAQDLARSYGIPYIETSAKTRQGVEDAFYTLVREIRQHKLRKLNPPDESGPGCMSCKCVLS
Chain of GDP-bound NRAS wild-type protein (P01111 whole entry): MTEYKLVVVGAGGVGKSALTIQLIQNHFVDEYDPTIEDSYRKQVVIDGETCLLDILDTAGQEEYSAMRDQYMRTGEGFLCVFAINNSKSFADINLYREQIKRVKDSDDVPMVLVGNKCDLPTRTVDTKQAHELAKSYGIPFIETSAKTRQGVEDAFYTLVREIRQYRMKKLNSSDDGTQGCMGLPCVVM
Chain of GDP-bound KRAS wild-type protein (P01116 whole entry): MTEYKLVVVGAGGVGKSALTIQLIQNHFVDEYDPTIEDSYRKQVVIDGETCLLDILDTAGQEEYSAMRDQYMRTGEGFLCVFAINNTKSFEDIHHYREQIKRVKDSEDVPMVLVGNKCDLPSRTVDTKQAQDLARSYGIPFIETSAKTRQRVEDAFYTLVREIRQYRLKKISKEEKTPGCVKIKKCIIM

Take `CCC[C@H]1C(=O)N[C@@H](CC(C)C)C(=O)N(C2CC2)CC(=O)N(C)[C@H]2C/C=C\CCN(C2=O)[C@@H](Cc2ccc(C)cc2)C(=O)N(C)CC(=O)N[C@@H](CCc2cc(F)c(C(F)(F)F)c(F)c2)C(=O)N2C[C@H](OCC)C[C@H]2C(=O)NC2(CCC2)C(=O)N(C)[C@@H](C2CCCC2)C(=O)N(C)[C@H](C(=O)N(C)C)CC(=O)N1C` [PP2532]: in assay [1], the pKd was 8.39. The “HRAS/KRAS (ratio of KD value with respect to GDP-bound HRAS wild-type protein to KD value with respect to KRAS)” value in assay [2] was “B (a compound having 3 or more and less than 10 is denoted as B)”. Besides, the “NRAS/KRAS (ratio of KD value with respect to GDP-bound NRAS wild-type protein to KD value with respect to KRAS)” value in assay [3] is “A (a compound having 10 or more and less than 20 is denoted as A)”. Further, the negative-log IC50 (pIC50) in assay [4] was 6.84.
As for `CCC(CC)[C@H]1C(=O)N(C)[C@H](C(=O)N(C)C)CC(=O)N(C)[C@@H](COC)C(=O)N[C@@H]([C@@H](C)CC)C(=O)N(C)CC(=O)N(C)[C@H]2C/C=C\CCN(C2=O)[C@@H](Cc2ccc(C(F)(F)F)cc2)C(=O)N(C)CC(=O)N[C@@H](CCc2ccc(Cl)c(Cl)c2)C(=O)N2C[C@H](OC(C)C)C[C@H]2C(=O)NC2(CC(C)(C)C2)C(=O)N1C` [PP2533], the negative logarithm of the Kd (pKd) in assay [1] is 9.31. In addition, the “HRAS/KRAS (ratio of KD value with respect to GDP-bound HRAS wild-type protein to KD value with respect to KRAS)” value in assay [2] was “A (a compound having 10 or more and less than 20 is denoted as A)”. The “NRAS/KRAS (ratio of KD value with respect to GDP-bound NRAS wild-type protein to KD value with respect to KRAS)” value in assay [3] is on record as “AA (a compound having 20 or more is denoted as AA)”. The compound also showed a pIC50 in assay [4] of 7.70.
Regarding `CCC[C@H]1C(=O)N[C@@H](CC(C)C)C(=O)N(C2CC2)CC(=O)N(C)[C@H]2C/C=C\CCN(C2=O)[C@@H](Cc2ccc(C)cc2)C(=O)N(C)CC(=O)N[C@@H](CCc2ccc(C(F)(F)F)c(OC)c2)C(=O)N2C[C@H](OCC)C[C@H]2C(=O)NC2(CCC2)C(=O)N(C)[C@@H](C2CCCC2)C(=O)N(C)[C@H](C(=O)N(C)C)CC(=O)N1C` [PP2534], the pKd in assay [1] was 8.39. The “HRAS/KRAS (ratio of KD value with respect to GDP-bound HRAS wild-type protein to KD value with respect to KRAS)” value in assay [2] is “B (a compound having 3 or more and less than 10 is denoted as B)”. Also, in assay [3], the “NRAS/KRAS (ratio of KD value with respect to GDP-bound NRAS wild-type protein to KD value with respect to KRAS)” value is “A (a compound having 10 or more and less than 20 is denoted as A)”. This compound also showed a pIC50 in assay [4] of 6.71.
`CCC[C@H]1C(=O)N[C@@H]([C@@H](C)CC)C(=O)N(C)CC(=O)N(C)[C@H]2C/C=C\CCN(C2=O)[C@@H](Cc2ccc(C(F)F)cc2)C(=O)N(C)CC(=O)N[C@@H](CCc2ccc(Cl)c(Cl)c2)C(=O)N2C[C@H](OC(C)C)C[C@H]2C(=O)NC2(CC(C)(C)C2)C(=O)N(C)[C@@H](C(CC)CC)C(=O)N(C)[C@H](C(=O)N(C)C)CC(=O)N1C` [PP2535]: the pKd in assay [1] is 9.27. Also, the “HRAS/KRAS (ratio of KD value with respect to GDP-bound HRAS wild-type protein to KD value with respect to KRAS)” value in assay [2] is “A (a compound having 10 or more and less than 20 is denoted as A)”. The “NRAS/KRAS (ratio of KD value with respect to GDP-bound NRAS wild-type protein to KD value with respect to KRAS)” value in assay [3] was “AA (a compound having 20 or more is denoted as AA)”. This compound showed a pIC50 in assay [4] of 7.57.
For the compound `C#CCN1CC(=O)N(C)[C@H]2C/C=C\CCN(C2=O)[C@@H](Cc2ccc(C)cc2)C(=O)N(C)CC(=O)N[C@@H](CCc2cc(F)c(C(F)(F)F)c(F)c2)C(=O)N2C[C@H](OCC)C[C@H]2C(=O)NC2(CCC2)C(=O)N(C)[C@@H](C2CCCC2)C(=O)N(C)[C@H](C(=O)N(C)C)CC(=O)N(C)[C@@H](CCC)C(=O)N[C@@H](CC(C)C)C1=O` [PP2536], in assay [1], the negative logarithm of the Kd (pKd) was 8.62. The “HRAS/KRAS (ratio of KD value with respect to GDP-bound HRAS wild-type protein to KD value with respect to KRAS)” value in assay [2] was “B (a compound having 3 or more and less than 10 is denoted as B)”. Further, the “NRAS/KRAS (ratio of KD value with respect to GDP-bound NRAS wild-type protein to KD value with respect to KRAS)” value in assay [3] is “A (a compound having 10 or more and less than 20 is denoted as A)”. For the same compound, the pIC50 in assay [4] was 6.82.
